From PubChem BioAssay AID248 (DTP/NCI, 2004)
Values joined by “and” are separate entries in the source; they are usually repeats but may differ in a detail not shown here. Identical values can stand only once. Inconclusive results and toxic doses are left out.

Tested on: L1210 leukemia ip in BDF1 mice, survival T/C
Experiment: NCI In Vivo Anticancer Drug Screen. Data for tumor model L1210 Leukemia (intraperitoneal) in B6D2F1 (BDF1) mice
Settings: endpoint: mean survival time, higher = longer survival
How it was run: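 Survival endpoint. Drug-treated group vs vehicle group, expressed as T divided by C. Tumor passaged by transplantation.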

[1] = dose: 12.5 mg/kg/injection, schedule: Q04DX002 (ip), vehicle: Klucel (hydroxypropylcellulose) (HPC)
[2] = dose: 25.0 mg/kg/injection, schedule: Q04DX002 (ip), vehicle: Klucel (hydroxypropylcellulose) (HPC)
[3] = dose: 100.0 mg/kg/injection, schedule: Q01DX009 (ip), vehicle: Klucel (hydroxypropylcellulose) (HPC)
[4] = dose: 200.0 mg/kg/injection, schedule: Q01DX009 (ip), vehicle: Klucel (hydroxypropylcellulose) (HPC)
[5] = dose: 400.0 mg/kg/injection, schedule: Q01DX009 (ip), vehicle: Klucel (hydroxypropylcellulose) (HPC)
[6] = dose: 100.0 mg/kg/injection, schedule: Q04DX003 (ip), vehicle: Klucel (hydroxypropylcellulose) (HPC)
[7] = dose: 200.0 mg/kg/injection, schedule: Q04DX003 (ip), vehicle: Klucel (hydroxypropylcellulose) (HPC)
[8] = dose: 400.0 mg/kg/injection, schedule: Q04DX003 (ip), vehicle: Klucel (hydroxypropylcellulose) (HPC)

C[CH2][Pb]([CH2]C)([CH2]C)[O]C(=O)c1ccc(N)cc1
T/C (dose: 0.75 mg/kg/injection, schedule: Q01DX009 (ip), vehicle: Klucel (hydroxypropylcellulose) (HPC)): 91 % of control
T/C (dose: 1.5 mg/kg/injection, schedule: Q01DX009 (ip), vehicle: Klucel (hydroxypropylcellulose) (HPC)): 100 % of control
T/C (dose: 3.0 mg/kg/injection, schedule: Q01DX009 (ip), vehicle: Klucel (hydroxypropylcellulose) (HPC)): 100 % of control
T/C (dose: 6.0 mg/kg/injection, schedule: Q01DX009 (ip), vehicle: Klucel (hydroxypropylcellulose) (HPC)): 102 % of control
T/C (dose: 12.0 mg/kg/injection, schedule: Q01DX009 (ip), vehicle: Klucel (hydroxypropylcellulose) (HPC)): 103 % of control
T/C [1]: 110 % of control
T/C [2]: 103 % of control

O=P(N1CCCCC1)(N1CC1)N1CC1
T/C (dose: 0.5 mg/kg/injection, schedule: Q01DX Z (ip), vehicle: saline): 117 % of control
T/C (dose: 2.0 mg/kg/injection, schedule: Q01DX Z (ip), vehicle: saline): 158 % of control
T/C (dose: 3.8 mg/kg/injection, schedule: Q01DX015 (ip), vehicle: saline): 106 % of control
T/C (dose: 4.0 mg/kg/injection, schedule: Q01DX011 (ip), vehicle: saline): 113 % of control
T/C (dose: 5.0 mg/kg/injection, schedule: Q01DX001 (ip), vehicle: saline): 107 % of control
T/C (dose: 6.0 mg/kg/injection, schedule: Q01DX Z (ip), vehicle: saline): 202 % of control
T/C (dose: 7.5 mg/kg/injection, schedule: Q01DX015 (ip), vehicle: saline): 124 % of control
T/C (dose: 8.0 mg/kg/injection, schedule: Q01DX011 (ip), vehicle: saline): 150 % of control
T/C (dose: 9.0 mg/kg/injection, schedule: Q01DX Z (ip), vehicle: saline): 94 % of control
T/C (dose: 10.0 mg/kg/injection, schedule: Q01DX001 (ip), vehicle: saline): 100 % of control
T/C (dose: 13.5 mg/kg/injection, schedule: Q01DX Z (ip), vehicle: saline): 94 % of control
T/C (dose: 15.0 mg/kg/injection, schedule: Q01DX011 (ip), vehicle: saline): 95 % of control
T/C (dose: 20.0 mg/kg/injection, schedule: Q01DX001 (ip), vehicle: saline): 122 % of control
T/C (dose: 21.0 mg/kg/injection, schedule: Q01DX Z (ip), vehicle: saline): 114 % of control
T/C (dose: 30.0 mg/kg/injection, schedule: Q01DX015 (ip), vehicle: saline): 106 % of control
T/C (dose: 40.0 mg/kg/injection, schedule: Q01DX001 (ip), vehicle: saline): 169 % of control

O=[N+]([O-])/C=C/c1ccc([N+](=O)[O-])o1
T/C (dose: 3.0 mg/kg/injection, schedule: Q01DX001 (ip), vehicle: Klucel (hydroxypropylcellulose) (HPC)): 106 % of control
T/C (dose: 6.0 mg/kg/injection, schedule: Q01DX001 (ip), vehicle: Klucel (hydroxypropylcellulose) (HPC)): 98 % of control
T/C (dose: 12.0 mg/kg/injection, schedule: Q01DX001 (ip), vehicle: Klucel (hydroxypropylcellulose) (HPC)): 92 % of control
T/C (dose: 12.5 mg/kg/injection, schedule: Q01DX001 (ip), vehicle: Klucel (hydroxypropylcellulose) (HPC)): 107 % of control

Cc1nc2ccccc2c(Oc2ccccc2)c1-c1ccccc1
T/C (dose: 50.0 mg/kg/injection, schedule: Q01DX001 (ip), vehicle: saline): 102 % of control
T/C (dose: 100.0 mg/kg/injection, schedule: Q01DX001 (ip), vehicle: saline): 102 % of control
T/C (dose: 200.0 mg/kg/injection, schedule: Q01DX001 (ip), vehicle: saline): 104 % of control
T/C (dose: 400.0 mg/kg/injection, schedule: Q01DX001 (ip), vehicle: saline): 96 % of control

O=[N+]([O-])c1ccc(C[N+]2(CCC[N+]3(Cc4ccc([N+](=O)[O-])cc4)CCCC3)CCCC2)cc1
T/C (dose: 9.38 mg/kg/injection, schedule: Q01DX001 (ip), vehicle: other): 107 % of control
T/C (dose: 18.75 mg/kg/injection, schedule: Q01DX001 (ip), vehicle: other): 105 % of control

Cc1n(Cc2ccccc2)c2c([n+]1C)C(=O)c1ccccc1C2=O
T/C (dose: 0.5 mg/kg/injection, schedule: Q01DX001 (ip), vehicle: saline): 102 % of control
T/C (dose: 1.0 mg/kg/injection, schedule: Q01DX001 (ip), vehicle: saline): 102 % of control
T/C (dose: 1.0 mg/kg/injection, schedule: Q04DX003 (ip), vehicle: Klucel (hydroxypropylcellulose) (HPC)): 100 % of control
T/C (dose: 2.0 mg/kg/injection, schedule: Q01DX001 (ip), vehicle: saline): 106 % of control
T/C (dose: 2.0 mg/kg/injection, schedule: Q04DX003 (ip), vehicle: Klucel (hydroxypropylcellulose) (HPC)): 91 % of control
T/C (dose: 4.0 mg/kg/injection, schedule: Q01DX001 (ip), vehicle: saline): 108 % of control
T/C (dose: 4.0 mg/kg/injection, schedule: Q04DX003 (ip), vehicle: Klucel (hydroxypropylcellulose) (HPC)): 96 % of control
T/C (dose: 125.0 micrograms/kg/injection, schedule: Q01DX009 (ip), vehicle: Klucel (hydroxypropylcellulose) (HPC)): 97 % of control
T/C (dose: 250.0 micrograms/kg/injection, schedule: Q01DX009 (ip), vehicle: Klucel (hydroxypropylcellulose) (HPC)): 97 % of control
T/C (dose: 500.0 micrograms/kg/injection, schedule: Q01DX009 (ip), vehicle: Klucel (hydroxypropylcellulose) (HPC)): 90 % of control
T/C (dose: 1000.0 micrograms/kg/injection, schedule: Q01DX009 (ip), vehicle: Klucel (hydroxypropylcellulose) (HPC)): 101 % of control
T/C (dose: 2000.0 micrograms/kg/injection, schedule: Q01DX009 (ip), vehicle: Klucel (hydroxypropylcellulose) (HPC)): 95 % of control

C[As](C)(=S)[As](C)(C)=S
T/C (dose: 12.5 mg/kg/injection, schedule: Q01DX009 (ip), vehicle: Klucel (hydroxypropylcellulose) (HPC)): 97 % of control
T/C [1]: 107 % of control and 88 % of control
T/C (dose: 25.0 mg/kg/injection, schedule: Q01DX009 (ip), vehicle: Klucel (hydroxypropylcellulose) (HPC)): 97 % of control
T/C [2]: 96 % of control and 91 % of control
T/C (dose: 50.0 mg/kg/injection, schedule: Q01DX009 (ip), vehicle: Klucel (hydroxypropylcellulose) (HPC)): 87 % of control

Cc1ccc(NC(=O)N(CCCl)N=O)c(C)c1
T/C (dose: 10.0 mg/kg/injection, schedule: Q01DX009 (ip), vehicle: other): 180 % of control
T/C (dose: 16.0 mg/kg/injection, schedule: Q01DX009 (ip), vehicle: other): 241 % of control
T/C (dose: 24.0 mg/kg/injection, schedule: Q01DX009 (ip), vehicle: other): 158 % of control
T/C (dose: 25.0 mg/kg/injection, schedule: Q01DX001 (ip), vehicle: other): 153 % of control
T/C (dose: 50.0 mg/kg/injection, schedule: Q01DX001 (ip), vehicle: other): 158 % of control
T/C (dose: 100.0 mg/kg/injection, schedule: Q01DX001 (ip), vehicle: other): 101 % of control

Cc1ccc(C(=O)C=Nc2ccccc2C(=O)O)cc1
T/C (dose: 75.0 mg/kg/injection, schedule: Q04DX003 (ip), vehicle: Klucel (hydroxypropylcellulose) (HPC)): 94 % of control
T/C (dose: 150.0 mg/kg/injection, schedule: Q04DX003 (ip), vehicle: Klucel (hydroxypropylcellulose) (HPC)): 95 % of control
T/C (dose: 300.0 mg/kg/injection, schedule: Q04DX003 (ip), vehicle: Klucel (hydroxypropylcellulose) (HPC)): 103 % of control

COc1ccc(NC(=O)N(c2ccccc2)C(C)C)c(OC)c1
T/C [3]: 97 % of control
T/C [4]: 94 % of control
T/C [5]: 102 % of control

CCN(CC)C(=O)CCC(=O)O
T/C (dose: 100.0 mg/kg/injection, schedule: Q04DX002 (ip), vehicle: saline): 89 % of control
T/C (dose: 200.0 mg/kg/injection, schedule: Q04DX002 (ip), vehicle: saline): 103 % of control
T/C (dose: 400.0 mg/kg/injection, schedule: Q04DX002 (ip), vehicle: saline): 103 % of control

NC(=O)c1cc(Cl)ccc1OC(=O)Nc1ccccc1F
T/C [3]: 115 % of control
T/C [4]: 102 % of control
T/C [5]: 98 % of control

CCOC(=O)Cc1ccccc1
T/C (dose: 100.0 mg/kg/injection, schedule: Q01DX009 (ip), vehicle: saline with Tween-80): 97 % of control
T/C (dose: 175.0 mg/kg/injection, schedule: Q04DX003 (ip), vehicle: saline with Tween-80): 91 % of control
T/C (dose: 200.0 mg/kg/injection, schedule: Q01DX009 (ip), vehicle: saline with Tween-80): 104 % of control
T/C (dose: 265.0 mg/kg/injection, schedule: Q04DX003 (ip), vehicle: saline with Tween-80): 106 % of control
T/C (dose: 400.0 mg/kg/injection, schedule: Q01DX009 (ip), vehicle: saline with Tween-80): 99 % of control

CCCCN(CCCC)CC(O)c1cc2ccc(Cl)cc2nc1-c1ccc(Cl)cc1 (centres undefined)
T/C [6]: 100 % of control
T/C [7]: 96 % of control
T/C [8]: 102 % of control

Cc1ccc([Si](C)(C)[Si](C)C)cc1
T/C [6]: 98 % of control
T/C [7]: 102 % of control
T/C [8]: 105 % of control
